Reference: ChEMBL document CHEMBL5154879, “Induction of Genes Implicated in Stress Response and Autophagy by a Novel Quinolin-8-yl-nicotinamide QN523 in Pancreatic Cancer” (J Med Chem, 2022)
pIC50: −log10 of the molar value.

What was measured:
MIA PaCa-2 [1] = experiment: Cytotoxicity against human MIA PaCa-2 cells assessed as inhibition of cell growth incubated for 72 hrs by MTT assay; format: functional, cell-based; settings: MIA PaCa-2, 72 h
PANC-1 = experiment: Cytotoxicity against human PANC-1 cells assessed as inhibition of cell growth incubated for 72 hrs by MTT assay; format: functional, cell-based; settings: PANC-1, 72 h
BXPC-3 = experiment: Cytotoxicity against human BXPC-3 cells assessed as inhibition of cell growth incubated for 72 hrs by MTT assay; format: functional, cell-based; settings: BXPC-3, 72 h
MIA PaCa-2 [2] = experiment: Induction of apoptosis in human MIA PaCa-2 cells assessed as late apoptotic cells at 0.1 uM incubated for 48 hrs by Annexin V-FITC/PI staining based flow cytometry analysis (reference value: 0.8%); format: functional
[3] = Cytotoxicity against human HFF-1 cells assessed as inhibition of cell growth incubated for 72 hrs by MTT assay; format: toxicity, cell-based
[4] = Cytotoxicity against HEK293 cells assessed as inhibition of cell growth incubated for 72 hrs by MTT assay; format: toxicity, cell-based; settings: human
[5] = Cytotoxicity against human HPDE cells assessed as inhibition of cell growth incubated for 72 hrs by MTT assay; format: toxicity, cell-based
MIA PaCa-2 [6] = experiment: Induction of cell cycle arrest in human MIA PaCa-2 cells assessed as accumulation of cells at S phase at 0.1 uM incubated for 24 hrs by RNase/propidium iodide staining based flow cytometry analysis (Rvb =27.6 %); format: functional
MIA PaCa-2 [7] = experiment: Induction of cell cycle arrest in human MIA PaCa-2 cells assessed as accumulation of cells at S phase at 0.1 uM incubated for 48 hrs by RNase/propidium iodide staining based flow cytometry analysis (Rvb =26.9 %); format: functional
MIA PaCa-2 [8] = experiment: Induction of cell cycle arrest in human MIA PaCa-2 cells assessed as accumulation of cells in G2/M phase at 0.1 uM incubated for 24 hrs by RNase/propidium iodide staining based flow cytometry analysis (reference value: 8.11%); format: functional
MIA PaCa-2 [9] = experiment: Induction of cell cycle arrest in human MIA PaCa-2 cells assessed as accumulation of cells in G2/M phase at 0.1 uM incubated for 48 hrs by RNase/propidium iodide staining based flow cytometry analysis (reference value: 2.71%); format: functional
MIA PaCa-2 [10] = experiment: Induction of cell cycle arrest in human MIA PaCa-2 cells assessed as accumulation of cells in G0/G1 phase at 0.1 uM incubated for 24 hrs by RNase/propidium iodide staining based flow cytometry analysis (reference value: 64.3%); format: functional
MIA PaCa-2 [11] = experiment: Induction of cell cycle arrest in human MIA PaCa-2 cells assessed as accumulation of cells in G0/G1 phase at 0.1 uM incubated for 48 hrs by RNase/propidium iodide staining based flow cytometry analysis (reference value: 70.4%); format: functional
MIA PaCa-2 [12] = experiment: Induction of apoptosis in human MIA PaCa-2 cells assessed as viable cells at 0.1 uM incubated for 24 hrs by Annexin V-FITC/PI staining based flow cytometry analysis (reference value: 90.2%); format: functional; settings: read-out: Activity
MIA PaCa-2 [13] = experiment: Induction of apoptosis in human MIA PaCa-2 cells assessed as early apoptotic cells at 0.1 uM incubated for 24 hrs by Annexin V-FITC/PI staining based flow cytometry analysis (reference value: 5.1%); format: functional
MIA PaCa-2 [14] = experiment: Induction of apoptosis in human MIA PaCa-2 cells assessed as late apoptotic cells at 0.1 uM incubated for 24 hrs by Annexin V-FITC/PI staining based flow cytometry analysis (reference value: 2.04%); format: functional
MIA PaCa-2 [15] = experiment: Induction of apoptosis in human MIA PaCa-2 cells assessed as necrotic cells at 0.1 uM incubated for 24 hrs by Annexin V-FITC/PI staining based flow cytometry analysis (reference value: 2.7%); format: functional
MIA PaCa-2 [16] = experiment: Induction of apoptosis in human MIA PaCa-2 cells assessed as live cells at 0.5 uM incubated for 24 hrs by Annexin V-FITC/PI staining based flow cytometry analysis (reference value: 90.2%); format: functional
MIA PaCa-2 [17] = experiment: Induction of apoptosis in human MIA PaCa-2 cells assessed as early apoptotic cells at 0.5 uM incubated for 24 hrs by Annexin V-FITC/PI staining based flow cytometry analysis (reference value: 5.1%); format: functional
MIA PaCa-2 [18] = experiment: Induction of apoptosis in human MIA PaCa-2 cells assessed as late apoptotic cells at 0.5 uM incubated for 24 hrs by Annexin V-FITC/PI staining based flow cytometry analysis (reference value: 2.04%); format: functional
MIA PaCa-2 [19] = experiment: Induction of apoptosis in human MIA PaCa-2 cells assessed as necrotic cells at 0.5 uM incubated for 24 hrs by Annexin V-FITC/PI staining based flow cytometry analysis (reference value: 2.7%); format: functional
MIA PaCa-2 [20] = experiment: Induction of apoptosis in human MIA PaCa-2 cells assessed as live cells at 0.1 uM incubated for 48 hrs by Annexin V-FITC/PI staining based flow cytometry analysis (reference value: 96.3%); format: functional
MIA PaCa-2 [21] = experiment: Induction of apoptosis in human MIA PaCa-2 cells assessed as early apoptotic cells at 0.1 uM incubated for 48 hrs by Annexin V-FITC/PI staining based flow cytometry analysis (reference value: 1.8%); format: functional
MIA PaCa-2 [22] = experiment: Induction of apoptosis in human MIA PaCa-2 cells assessed as necrotic cells at 0.1 uM incubated for 48 hrs by Annexin V-FITC/PI staining based flow cytometry analysis (reference value: 1.07%); format: functional
MIA PaCa-2 [23] = experiment: Induction of apoptosis in human MIA PaCa-2 cells assessed as viable cells at 0.5 uM incubated for 48 hrs by Annexin V-FITC/PI staining based flow cytometry analysis (reference value: 96.3%); format: functional; settings: read-out: Activity
MIA PaCa-2 [24] = experiment: Induction of apoptosis in human MIA PaCa-2 cells assessed as early apoptotic cells at 0.5 uM incubated for 48 hrs by Annexin V-FITC/PI staining based flow cytometry analysis (reference value: 1.8%); format: functional
MIA PaCa-2 [25] = experiment: Induction of apoptosis in human MIA PaCa-2 cells assessed as late apoptotic cells at 0.5 uM incubated for 48 hrs by Annexin V-FITC/PI staining based flow cytometry analysis (reference value: 0.8%); format: functional
MIA PaCa-2 [26] = experiment: Induction of apoptosis in human MIA PaCa-2 cells assessed as necrotic cells at 0.5 uM incubated for 48 hrs by Annexin V-FITC/PI staining based flow cytometry analysis (reference value: 1.07%); format: functional

Compound: Cc1cnc(C(=O)Nc2cc(OCCN(C)C)cc3cccnc23)cn1
- pIC50 (MIA PaCa-2 [1]): 5.74
- pIC50 (PANC-1): 5.35
- pIC50 (BXPC-3): 5.01

Compound: O=C(Nc1cc(OCCF)cc2cccnc12)c1cnccn1
- pIC50 (MIA PaCa-2 [1]): 6.43
- pIC50 (PANC-1): 6.28
- pIC50 (BXPC-3): 5.36

Compound: Nc1ccn([C@@H]2O[C@H](CO)[C@@H](O)C2(F)F)c(=O)n1 [GEMCITABINE]
- Activity (MIA PaCa-2 [2]): 2.01%
- pIC50 (PANC-1): 6.70
- IC50 at 72 h [3]: 14.4 µM
- IC50 at 72 h [4]: 0.05 µM
- IC50 at 72 h [5]: 0.001 µM
- Activity (MIA PaCa-2 [6]): 78.03%
- Activity (MIA PaCa-2 [7]): 89.3%
- Activity (MIA PaCa-2 [8]): 0.93%
- Activity (MIA PaCa-2 [9]): 0%
- Activity (MIA PaCa-2 [10]): 21.04%
- Activity (MIA PaCa-2 [11]): 10.8%
- viability at 0.1 µM (MIA PaCa-2 [12]): 79.1%
- Activity (MIA PaCa-2 [13]): 16.1%
- Activity (MIA PaCa-2 [14]): 4%
- Activity (MIA PaCa-2 [15]): 0.8%
- Activity (MIA PaCa-2 [16]): 87.2%
- Activity (MIA PaCa-2 [17]): 7.6%
- Activity (MIA PaCa-2 [18]): 2.8%
- Activity (MIA PaCa-2 [19]): 2.4%
- Activity (MIA PaCa-2 [20]): 93.7%
- Activity (MIA PaCa-2 [21]): 2.2%
- Activity (MIA PaCa-2 [22]): 2.1%
- viability at 0.5 µM (MIA PaCa-2 [23]): 90%
- Activity (MIA PaCa-2 [24]): 5.2%
- Activity (MIA PaCa-2 [25]): 2.3%
- Activity (MIA PaCa-2 [26]): 2.6%

Compound: Cc1cnc(C(=O)Nc2cccc3ncccc23)cn1
- pIC50 (MIA PaCa-2 [1]): < 5.00
- pIC50 (PANC-1): < 5.00
- pIC50 (BXPC-3): < 5.00

Compound: CN(C)Cc1ccc2cccc(NC(=O)c3cnccn3)c2n1
- pIC50 (MIA PaCa-2 [1]): < 5.00
- pIC50 (PANC-1): < 5.00
- pIC50 (BXPC-3): < 5.00

Compound: O=C(Nc1cccc2cccnc12)c1ccc(Br)cn1
- pIC50 (MIA PaCa-2 [1]): 5.74
- pIC50 (PANC-1): 5.40
- pIC50 (BXPC-3): < 5.00

Compound: O=C(Nc1cc(OCCC2CCNCC2)cc2cccnc12)c1ncccn1
- pIC50 (MIA PaCa-2 [1]): < 5.00
- pIC50 (PANC-1): < 5.00
- pIC50 (BXPC-3): < 5.00

Compound: O=C(Nc1cc(OCCN2CCOCC2)cc2cccnc12)c1cnccn1
- pIC50 (MIA PaCa-2 [1]): 5.77
- pIC50 (PANC-1): 5.09
- pIC50 (BXPC-3): 5.29

Compound: O=C(Nc1nccc2cccnc12)c1cnccn1
- pIC50 (MIA PaCa-2 [1]): 5.11
- pIC50 (PANC-1): 5.17
- pIC50 (BXPC-3): 5.14

Compound: O=C(Nc1cc(Cl)cc2cccnc12)c1cnccn1
- pIC50 (MIA PaCa-2 [1]): 5.55
- pIC50 (PANC-1): 5.57
- pIC50 (BXPC-3): < 5.00

Compound: COc1cc(NC(=O)c2ncccn2)c2ncccc2c1
- pIC50 (MIA PaCa-2 [1]): 5.89
- pIC50 (PANC-1): 5.05
- pIC50 (BXPC-3): < 5.00

Compound: Cc1ccc2cccc(NC(=O)c3cnccn3)c2n1
- pIC50 (MIA PaCa-2 [1]): < 5.00
- pIC50 (PANC-1): < 5.00
- pIC50 (BXPC-3): < 5.00

Compound: CC(C)(C)OC(=O)C1CCN(CCOc2cc(NC(=O)c3cnccn3)c3ncccc3c2)CC1
- pIC50 (MIA PaCa-2 [1]): 5.44
- pIC50 (PANC-1): 5.02
- pIC50 (BXPC-3): 5.48

Compound: Cc1cnc(C(=O)Nc2ccc3ncccc3c2)cn1
- pIC50 (MIA PaCa-2 [1]): < 5.00
- pIC50 (PANC-1): < 5.00
- pIC50 (BXPC-3): < 5.00

Compound: O=C(Nc1cccc2cccnc12)c1cccc(Br)n1
- pIC50 (MIA PaCa-2 [1]): < 5.00
- pIC50 (PANC-1): < 5.00
- pIC50 (BXPC-3): < 5.00

Compound: CC(C)(C)OC(=O)NCCOc1cc(NC(=O)c2cnccn2)c2ncccc2c1
- pIC50 (MIA PaCa-2 [1]): 6.06
- pIC50 (PANC-1): 5.02
- pIC50 (BXPC-3): 5.04

Compound: Cc1cnc(C(=O)Nc2cccc3cccnc23)cn1
- pIC50 (MIA PaCa-2 [1]): 6.30
- pIC50 (PANC-1): 5.74
- pIC50 (BXPC-3): 5.03

Compound: Cc1cnc(C(=O)Nc2cc(OCCN3CCOCC3)cc3cccnc23)cn1
- pIC50 (MIA PaCa-2 [1]): 6.14
- pIC50 (PANC-1): 5.46
- pIC50 (BXPC-3): 5.70

Compound: O=C(Nc1cccc2cccnc12)c1cnc(Cl)cn1
- pIC50 (MIA PaCa-2 [1]): 5.15
- pIC50 (PANC-1): 5.03
- pIC50 (BXPC-3): < 5.00

Compound: Cc1cnc(C(=O)Nc2cc(F)cc3cccnc23)cn1
- pIC50 (MIA PaCa-2 [1]): 6.51
- pIC50 (PANC-1): 5.68
- pIC50 (BXPC-3): < 5.00

Compound: NCCOc1cc(NC(=O)c2ncccn2)c2ncccc2c1
- pIC50 (MIA PaCa-2 [1]): < 5.00
- pIC50 (PANC-1): < 5.00
- pIC50 (BXPC-3): < 5.00

Compound: Cc1ccc2cccc(NC(=O)c3ncccn3)c2n1
- pIC50 (MIA PaCa-2 [1]): < 5.00
- pIC50 (PANC-1): < 5.00
- pIC50 (BXPC-3): < 5.00

Compound: Cc1cnc(C(=O)Nc2cc(OCCN)cc3cccnc23)cn1
- pIC50 (MIA PaCa-2 [1]): < 5.00
- pIC50 (PANC-1): < 5.00
- pIC50 (BXPC-3): < 5.00
